Assay [1] addresses T1, PBP3 from Escherichia coli (K-12) (Escherichia coli, UniProt P0AD68).
T1 construct: made in house
The assay can be described thus: Bocillin-FL fluorescence polarization competition binding, E. coli PBP3. Put shortly: (§1)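 Purified PBPs pre-incubated with inhibitor (E. coli PBP3 1.5 μM, 30 min; P. aeruginosa PBP3 0.75 μM, A. baumannii PBP1a 1 μM and PBP3 0.2 μM, 15 min), then Bocillin-FL 0.1 μM (0.05 μM for PBP1a) added; FP read up to 60 min. EC50 = concentration halving bound Bocillin-FL.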
On the technique in general: In fluorescence polarisation assays a small probe gives low polarisation when free and higher when bound to something large.

Assay [2] has as its target T2, PBP3 from Pseudomonas aeruginosa (PAO1) (Pseudomonas aeruginosa, UniProt G3XD46).
T2 construct: made in house
The assay can be described thus: Bocillin-FL fluorescence polarization competition binding, P. aeruginosa PBP3. As to conditions: Binding affinity to P. aeruginosa PBP3; fluorescence polarization competition binding assay using Bocillin-FL; read-out: P. aeruginosa PBP3 Potency. An outline of the steps:
as §1

Another assay deals with A. baumannii ATCC 19606. The assay can be described thus: microbe, parasite or virus in culture. In kind it is cell-based. As to conditions: Acinetobacter baumannii, ATCC19606, read-out: MIC, A. baumannii ATCC 19606.
A further assay has as its system P. aeruginosa ATCC 35151. The assay can be described thus: microbe, parasite or virus in culture. As to conditions: Pseudomonas aeruginosa, ATCC35151, read-out: Minimum inhibitory concentration, P. aeruginosa ATCC 35151. In kind it is cell-based.
Assay [3] has as its system P. aeruginosa (ΔmexAB-oprM). The assay can be described thus: Broth microdilution MIC in iron-depleted CAMHB (IDM). In kind it is cell-based. The note with it: Pseudomonas aeruginosa; iron-depleted CAMHB (IDM); […]; read-out: Minimum inhibitory concentration, P. aeruginosa ΔmexAB-oprM.
The next assay deals with P. aeruginosa CDC-0090. The assay can be described thus: microbe, parasite or virus in culture. The note with it: Pseudomonas aeruginosa, CDC0090, read-out: Minimum inhibitory concentration, P. aeruginosa CDC-0090. In kind it is cell-based.
The subject of the next assay is A. baumannii CDC-0083. The assay can be described thus: microbe, parasite or virus in culture. In kind it is cell-based. The note with it: Acinetobacter baumannii, CDC0083, read-out: MIC, A. baumannii CDC-0083.
Assay [4] relates to B. humptydooensis ATCC BAA-2767. The assay can be described thus: microbe, parasite or virus in culture. As to conditions: Burkholderia humptydooensis, ATCCBAA2767, read-out: Minimum inhibitory concentration (MIC), B. humptydooensis ATCC BAA-2767. In kind it is cell-based.
For the next assay, the system named is N. gonorrhoeae FA1090. The assay can be described thus: Liquid broth MIC in Fastidious broth. As to conditions: Neisseria gonorrhoeae, FA1090, read-out: Minimum Inhibitory Concentration, FA 1090.
For another assay, the system named is N. gonorrhoeae WHO L. The assay can be described thus: Liquid broth MIC in Fastidious broth. The note with it: Neisseria gonorrhoeae, read-out: Minimum Inhibitory Concentration, WHO L.
The test system of another assay is N. gonorrhoeae WHO M. The assay can be described thus: Liquid broth MIC in Fastidious broth. The note with it: Neisseria gonorrhoeae, read-out: Minimum Inhibitory Concentration, WHO M.
The next assay relates to N. gonorrhoeae WHO K. The assay can be described thus: Liquid broth MIC in Fastidious broth. As to conditions: Neisseria gonorrhoeae, read-out: Minimum Inhibitory Concentration, WHO K.
The subject of the next assay is N. gonorrhoeae WHO X. The assay can be described thus: Liquid broth MIC in Fastidious broth. As to conditions: Neisseria gonorrhoeae, read-out: Minimum Inhibitory Concentration, WHO X.
For another assay, the system named is N. gonorrhoeae WHO Z. The assay can be described thus: Liquid broth MIC in Fastidious broth. As to conditions: Neisseria gonorrhoeae, read-out: Minimum Inhibitory Concentration, WHO Z.
The subject of another assay is N. gonorrhoeae CDC-0197. The assay can be described thus: Liquid broth MIC in Fastidious broth. The note with it: Neisseria gonorrhoeae, CDC0197, read-out: Minimum Inhibitory Concentration, CDC-0197.

Values after ≈ are worked out from the molar mass of the structure shown.

T1 sequence (P0AD68 1-577): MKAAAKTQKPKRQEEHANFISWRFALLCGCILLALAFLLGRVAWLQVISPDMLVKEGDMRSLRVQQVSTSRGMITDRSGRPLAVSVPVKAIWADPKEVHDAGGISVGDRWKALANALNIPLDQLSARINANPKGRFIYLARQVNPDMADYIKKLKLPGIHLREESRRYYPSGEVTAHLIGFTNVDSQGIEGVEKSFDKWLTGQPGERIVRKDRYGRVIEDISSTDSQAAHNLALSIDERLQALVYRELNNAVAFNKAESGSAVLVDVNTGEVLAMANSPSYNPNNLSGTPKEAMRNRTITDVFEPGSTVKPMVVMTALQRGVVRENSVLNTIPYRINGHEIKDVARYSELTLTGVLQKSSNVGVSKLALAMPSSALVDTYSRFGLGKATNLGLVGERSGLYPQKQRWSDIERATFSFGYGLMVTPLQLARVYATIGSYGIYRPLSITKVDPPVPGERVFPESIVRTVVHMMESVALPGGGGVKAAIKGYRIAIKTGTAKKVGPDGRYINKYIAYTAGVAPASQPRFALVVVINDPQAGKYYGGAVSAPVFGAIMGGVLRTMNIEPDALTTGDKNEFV
T2 sequence (G3XD46 whole entry): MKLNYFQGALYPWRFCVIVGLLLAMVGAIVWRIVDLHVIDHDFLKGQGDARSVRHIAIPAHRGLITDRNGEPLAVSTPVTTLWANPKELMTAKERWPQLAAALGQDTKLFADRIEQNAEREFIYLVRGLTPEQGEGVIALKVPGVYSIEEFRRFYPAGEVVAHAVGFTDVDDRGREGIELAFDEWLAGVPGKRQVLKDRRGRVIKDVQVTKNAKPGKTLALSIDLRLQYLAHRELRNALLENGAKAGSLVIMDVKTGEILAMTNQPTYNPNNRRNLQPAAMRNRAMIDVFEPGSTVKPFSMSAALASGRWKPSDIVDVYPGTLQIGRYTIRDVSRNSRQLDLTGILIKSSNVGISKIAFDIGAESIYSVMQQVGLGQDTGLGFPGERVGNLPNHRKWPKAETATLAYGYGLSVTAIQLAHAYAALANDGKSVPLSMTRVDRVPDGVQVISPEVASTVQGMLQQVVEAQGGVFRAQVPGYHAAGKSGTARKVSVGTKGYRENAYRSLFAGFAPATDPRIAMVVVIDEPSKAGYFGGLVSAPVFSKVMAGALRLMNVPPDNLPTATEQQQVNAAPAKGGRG
Protocol for N. gonorrhoeae FA1090: Additional antibacterial testing of the series was performed in 8 reference strains of N. gonorrhoeae (ATCC 49226, FA1090, MS 11, WHO G, WHO L, WHO M, WHO K, WHO X, WHO Z, WHO Q, CDC-0197). ATCC 49226, FA1090, MS11, WHO G, WHO L, and WHO M produce wild type or wild-type like PBP2. WHO K, WHO X, WHO Z, WHO Q, and CDC-0197 produce mosaic PBP2. Liquid broth-based assays were used for antibacterial testing of PBP inhibitors in Neisseria gonorrhoeae. Briefly, cryo-preserved bacterial cultures of clinical strains were streaked for isolation on Chocolate Agar (72 g/L (2×) GC Agar Base (BD #228950) and 2% (2×) Hemoglobin was autoclaved at 121° C. for 20 minutes to sterilize. Once cooled to ˜50° C. the 2×GC Agar Base and 2× Hemoglobin solutions are combined and 1% IsoVitaleX Enrichment (BD #211876) was added to the solution). Strains were incubated at 36° C. and 5% CO2 to allow growth of colonies, 24 hours before inoculum preparation. 2-fold serial dilutions of test compounds were conducted in a 96 well plate with a final volume of 75 μL per well at 2-fold the final desired concentration in Fastidious broth (Remel #R07664). For preparation of assay inoculum, a direct suspension was prepared by aseptically swabbing 10-15 colonies from agar plates into culture tubes containing 2 mL of fresh sterile saline. After the dilution plates were set up, direct suspensions were then diluted in a cuvette containing sterile saline and the optical density was measured at 600 nm. Inocula were diluted such that 75 μL of this culture in Fastidious broth results in a starting bacterial concentration of 5×10^5 CFU/mL when added to the dilution plates. The plates were incubated for ˜24 hours at 36° C. and 5% CO2.

The compound `O=C(NCCCN1CCN(C(=O)N[C@H](C(=O)N[C@H]2Cc3ccc(F)c(C(=O)O)c3OB2O)c2cc(F)c(O)c(O)c2Cl)C1=O)c1ccccc1` [Example 252, (R)-3-((S)-2-(3-(3-benzamidopropyl)-2-oxoimidazolidine-1-carboxamido)-2-(2-chloro-5-fluoro-3,4-dihydroxyphenyl)acetamido)-7-fluoro-2-hydroxy-3,4-dihydro-2H-benzo[e][1,2]oxaborinine-8-carboxylic acid] registered a concentration for a half-maximal effect (EC50) in assay [1] above 250 µM. For the same compound, the IC50 in assay [2] is above 250 µM. Besides, the MIC with A. baumannii ATCC 19606 is above 128 µg/mL; in the assay with P. aeruginosa ATCC 35151, 2 to 4 µg/mL (≈ 2.79 to 5.59 µM); in assay [3] it was above 128 µg/mL; with P. aeruginosa CDC-0090, above 128 µg/mL; with A. baumannii CDC-0083 it was above 128 µg/mL; in assay [4], above 128 µg/mL. Also, the MIC with N. gonorrhoeae FA1090, in the assay on N. gonorrhoeae WHO L, in the assay with N. gonorrhoeae WHO M, in the assay with N. gonorrhoeae WHO K, with N. gonorrhoeae WHO X and in the assay on N. gonorrhoeae WHO Z was above 64 µg/mL in each case. The MIC in the assay with N. gonorrhoeae CDC-0197 is above 64 µg/mL.
Turning to `O=C(NCCCN1CCN(C(=O)N[C@H](C(=O)N[C@H]2Cc3ccc(F)c(C(=O)O)c3OB2O)c2cc(F)c(O)c(O)c2Cl)C1=O)c1cccc(O)c1` [Example 254, (R)-3-((S)-2-(2-chloro-5-fluoro-3,4-dihydroxyphenyl)-2-(3-(3-(3-hydroxybenzamido)propyl)-2-oxoimidazolidine-1-carboxamido)acetamido)-7-fluoro-2-hydroxy-3,4-dihydro-2H-benzo[e][1,2]oxaborinine-8-carboxylic acid], in [1], the EC50 lay within 50 to 250 µM. Also, the IC50 in assay [2] lay within 50 to 250 µM. For the same compound, the MIC is 8 to 16 µg/mL (≈ 10.9 to 21.9 µM) with A. baumannii ATCC 19606; below 1 µg/mL with P. aeruginosa ATCC 35151; above 128 µg/mL in assay [3]; above 128 µg/mL in the assay with P. aeruginosa CDC-0090; above 128 µg/mL with A. baumannii CDC-0083; above 128 µg/mL in [4]. The MIC with N. gonorrhoeae FA1090, with N. gonorrhoeae WHO L, in the assay with N. gonorrhoeae WHO M, with N. gonorrhoeae WHO K, with N. gonorrhoeae WHO X and with N. gonorrhoeae WHO Z was above 64 µg/mL throughout. Moreover, the MIC with N. gonorrhoeae CDC-0197 is above 64 µg/mL.
For `O=C(NCCCN1CCN(C(=O)N[C@@H](C(=O)N[C@H]2Cc3ccc(F)c(C(=O)O)c3OB2O)c2cc(F)c(O)c(O)c2Cl)C1=O)c1cccc(O)c1` [Example 255, (R)-3-((R)-2-(2-chloro-5-fluoro-3,4-dihydroxyphenyl)-2-(3-(3-(3-hydroxybenzamido)propyl)-2-oxoimidazolidine-1-carboxamido)acetamido)-7-fluoro-2-hydroxy-3,4-dihydro-2H-benzo[e][1,2]oxaborinine-8-carboxylic acid], the EC50 in assay [1] was below 10 µM. The IC50 in assay [2] is below 10 µM. For the same compound, the MIC (in the assay with A. baumannii ATCC 19606; in the assay on P. aeruginosa ATCC 35151; in [3]; in the assay on P. aeruginosa CDC-0090; in the assay on A. baumannii CDC-0083; in [4]) was below 1 µg/mL each time. Besides, the MIC with N. gonorrhoeae FA1090 was 1 to 2 µg/mL (≈ 1.37 to 2.73 µM); with N. gonorrhoeae WHO L it was above 64 µg/mL; with N. gonorrhoeae WHO M it was 4 to 8 µg/mL (≈ 5.47 to 10.9 µM); in the assay on N. gonorrhoeae WHO K, above 64 µg/mL; in the assay on N. gonorrhoeae WHO X, above 64 µg/mL; in the assay with N. gonorrhoeae WHO Z, 16 to 32 µg/mL (≈ 21.9 to 43.7 µM). In the assay on N. gonorrhoeae CDC-0197, the MIC was in the range of 16 to 32 µg/mL (≈ 21.9 to 43.7 µM).
Turning to `O=C(NCCCN1CCN(C(=O)NC(C(=O)N[C@H]2Cc3ccc(F)c(C(=O)O)c3OB2O)c2cc(F)c(O)c(O)c2Cl)C1=O)c1ccncc1` (stereo partly drawn) [Example 256, (3R)-3-(2-(2-chloro-5-fluoro-3,4-dihydroxyphenyl)-2-(3-(3-(isonicotinamido)propyl)-2-oxoimidazolidine-1-carboxamido)acetamido)-7-fluoro-2-hydroxy-3,4-dihydro-2H-benzo[e][1,2]oxaborinine-8-carboxylic acid], the concentration giving a half-maximal response (EC50) in assay [1] was in the range of 10 to 50 µM. In assay [2], the IC50 was below 10 µM. Besides, the MIC with A. baumannii ATCC 19606 was below 1 µg/mL; with P. aeruginosa ATCC 35151, below 1 µg/mL; in [3] it was below 1 µg/mL; in the assay with P. aeruginosa CDC-0090, 2 to 4 µg/mL (≈ 2.79 to 5.58 µM); in the assay with A. baumannii CDC-0083, below 1 µg/mL; in [4], below 1 µg/mL. Moreover, the MIC in the assay with N. gonorrhoeae FA1090 was 4 to 8 µg/mL (≈ 5.58 to 11.2 µM); in the assay with N. gonorrhoeae WHO L, above 64 µg/mL; in the assay with N. gonorrhoeae WHO M, 16 to 32 µg/mL (≈ 22.3 to 44.6 µM); in the assay with N. gonorrhoeae WHO K it was above 64 µg/mL; in the assay with N. gonorrhoeae WHO X it was above 64 µg/mL; with N. gonorrhoeae WHO Z it was 16 to 32 µg/mL (≈ 22.3 to 44.6 µM). In the assay with N. gonorrhoeae CDC-0197, the MIC was above 64 µg/mL.
In assay [1], `O=C(NCCCN1CCN(C(=O)NC(C(=O)N[C@H]2Cc3ccc(F)c(C(=O)O)c3OB2O)c2cc(F)c(O)c(O)c2Cl)C1=O)c1nccs1` (stereo partly drawn) [Example 257, (3R)-3-(2-(2-chloro-5-fluoro-3,4-dihydroxyphenyl)-2-(2-oxo-3-(3-(thiazole-2-carboxamido)propyl)imidazolidine-1-carboxamido)acetamido)-7-fluoro-2-hydroxy-3,4-dihydro-2H-benzo[e][1,2]oxaborinine-8-carboxylic acid] gave an EC50 of 10 to 50 µM. The IC50 in [2] is below 10 µM. Also, the MIC was below 1 µg/mL in the assay with A. baumannii ATCC 19606; below 1 µg/mL in the assay on P. aeruginosa ATCC 35151; below 1 µg/mL in assay [3]; 2 to 4 µg/mL (≈ 2.77 to 5.53 µM) with P. aeruginosa CDC-0090; below 1 µg/mL in the assay on A. baumannii CDC-0083; 2 to 4 µg/mL (≈ 2.77 to 5.53 µM) in assay [4]. In addition, the MIC was 4 to 8 µg/mL (≈ 5.53 to 11.1 µM) in the assay with N. gonorrhoeae FA1090; above 64 µg/mL in the assay with N. gonorrhoeae WHO L; 16 to 32 µg/mL (≈ 22.1 to 44.3 µM) in the assay with N. gonorrhoeae WHO M; above 64 µg/mL with N. gonorrhoeae WHO K; above 64 µg/mL with N. gonorrhoeae WHO X; 16 to 32 µg/mL (≈ 22.1 to 44.3 µM) in the assay with N. gonorrhoeae WHO Z. Also, the MIC with N. gonorrhoeae CDC-0197 is above 64 µg/mL.
`O=C(NCCCN1CCN(C(=O)N[C@@H](C(=O)N[C@H]2Cc3ccc(F)c(C(=O)O)c3OB2O)c2cc(F)c(O)c(O)c2Cl)C1=O)Nc1cccc(O)c1` [Example 258, (R)-3-((R)-2-(2-chloro-5-fluoro-3,4-dihydroxyphenyl)-2-(3-(3-(3-(3-hydroxyphenyl)ureido)propyl)-2-oxoimidazolidine-1-carboxamido)acetamido)-7-fluoro-2-hydroxy-3,4-dihydro-2H-benzo[e][1,2]oxaborinine-8-carboxylic acid] returned an EC50 in assay [1] below 10 µM. The IC50 in assay [2] was below 10 µM. Also, the MIC (with A. baumannii ATCC 19606; in the assay on P. aeruginosa ATCC 35151; in assay [3]; with P. aeruginosa CDC-0090; with A. baumannii CDC-0083; in [4]) was below 1 µg/mL throughout. Besides, the MIC with N. gonorrhoeae FA1090 was 1 to 2 µg/mL (≈ 1.34 to 2.68 µM); in the assay with N. gonorrhoeae WHO L, above 64 µg/mL; in the assay on N. gonorrhoeae WHO M, 4 to 8 µg/mL (≈ 5.36 to 10.7 µM); in the assay on N. gonorrhoeae WHO K it was above 64 µg/mL; in the assay on N. gonorrhoeae WHO X, above 64 µg/mL; with N. gonorrhoeae WHO Z, 4 to 8 µg/mL (≈ 5.36 to 10.7 µM). For the same compound, the MIC with N. gonorrhoeae CDC-0197 is 16 to 32 µg/mL (≈ 21.4 to 42.8 µM).
Regarding `O=C(NCCCN1CCN(C(=O)NC(C(=O)N[C@H]2Cc3ccc(F)c(C(=O)O)c3OB2O)c2cc(F)c(O)c(O)c2Cl)C1=O)Nc1cccnc1` (stereo partly drawn) [Example 259, (3R)-3-(2-(2-chloro-5-fluoro-3,4-dihydroxyphenyl)-2-(2-oxo-3-(3-(3-(pyridin-3-yl)ureido)propyl)imidazolidine-1-carboxamido)acetamido)-7-fluoro-2-hydroxy-3,4-dihydro-2H-benzo[e][1,2]oxaborinine-8-carboxylic acid], the EC50 in assay [1] was below 10 µM. Also, in assay [2], the IC50 is below 10 µM. Moreover, the MIC (in the assay with A. baumannii ATCC 19606; in the assay on P. aeruginosa ATCC 35151; in [3]; with P. aeruginosa CDC-0090; in the assay with A. baumannii CDC-0083; in assay [4]) was below 1 µg/mL in each case. For the same compound, the MIC in the assay on N. gonorrhoeae FA1090 was 1 to 2 µg/mL (≈ 1.37 to 2.73 µM); with N. gonorrhoeae WHO L, above 64 µg/mL; in the assay on N. gonorrhoeae WHO M, 4 to 8 µg/mL (≈ 5.47 to 10.9 µM); in the assay with N. gonorrhoeae WHO K it was above 64 µg/mL; in the assay on N. gonorrhoeae WHO X it was above 64 µg/mL; with N. gonorrhoeae WHO Z, 16 to 32 µg/mL (≈ 21.9 to 43.7 µM). The MIC in the assay on N. gonorrhoeae CDC-0197 was in the range of 16 to 32 µg/mL (≈ 21.9 to 43.7 µM).

By EC50 is commonly meant the concentration needed to bring the measured effect to its halfway point. Low values mean greater potency, high ones weaker potency.

Values taken from US20240270762A1, “PENICILLIN-BINDING PROTEIN INHIBITORS” (priority 2021, published 2024).
